Measured values published in PubChem BioAssay (NCI).
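Following 48 hours of exposure in 96-well plates, responses at five concentrations were used to interpolate endpoints linearly. GI50 = concentration required for 50% inhibition of growth. TGI marks complete inhibition of growth.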

How the values were obtained:
Test in all cases: growth of human tumour cells (NCI), 48 h
[1] = system: U251 CNS
[2] = system: HCC-2998 colon
[3] = system: OVCAR-4 ovarian
[4] = system: HCT-15 colon
[5] = system: CAKI-1 renal
[6] = system: OVCAR-5 ovarian
[7] = system: CCRF-CEM leukemia
[8] = system: NCI-H23 lung
[9] = system: HS 578T breast
[10] = system: NCI/ADR-RES ovarian

SMILES | TGI [1] | TGI [2] | TGI [3] | TGI [4] | TGI [5] | TGI [6] | TGI [7] | TGI [8] | GI50 [6] | GI50 [7] | GI50 [8] | GI50 [1] | GI50 [9] | TGI [9] | GI50 [2] | GI50 [10] | TGI [10] | GI50 [3] | GI50 [4]
COc1ncn(C2C=C(CO)C(O)C2O)c(=O)n1 (configuration not stated) | > 100 µM | > 100 µM | > 100 µM | > 100 µM |  |  |  |  |  |  |  |  |  |  |  |  |  |  | 
O=C(O)C(=O)/C=C\c1ccc(Cl)cc1 | > 100 µM | > 100 µM | > 100 µM | > 100 µM | > 100 µM | > 100 µM | > 100 µM | > 100 µM |  |  |  |  |  |  |  |  |  |  | 
N#CC1=C(N)Oc2c(sc3c(F)cccc23)C1c1ccc(Cl)cc1 (configuration not stated) | 11.6 µM | 22.6 µM | 19.6 µM | 13.1 µM |  | 34 µM | 12.1 µM | 16.2 µM | 10.2 µM | 2.99 µM | 3.37 µM | 3.13 µM | 2.63 µM | 15.5 µM | 7.25 µM | 2.09 µM | 6.68 µM | 4.21 µM | 2.75 µM
CC(CC(C)[C@H]1CCC2[C@H]3C(CC[C@@]21C)[C@@]1(C)CCC(O)C[C@H]1C[C@@H]3O)C(=O)O (some centres not stated) | > 100 µM | > 100 µM | > 100 µM | > 100 µM | > 100 µM | > 100 µM | > 100 µM | > 100 µM |  |  |  |  |  |  |  |  | > 100 µM |  | 
O=C(c1ccc(Cl)cc1)N(C(=S)N1CCN(c2ccccc2)CC1)C1CCCCC1 | > 100 µM |  | > 100 µM | > 100 µM | > 100 µM | > 100 µM | > 100 µM | > 100 µM |  |  |  |  |  |  |  |  |  |  | 
c1cc(C2O[C@H]3CCCN3[C@@H]2c2ccncc2)ccn1 (some centres not stated) | > 100 µM |  | > 100 µM | > 100 µM | > 100 µM | > 100 µM | > 100 µM | > 100 µM |  |  |  |  |  |  |  |  |  |  | 
COc1ccc(-c2ccc(/C=N/n3cnn(CN4CCN(C)CC4)c3=S)o2)c([N+](=O)[O-])c1 | 65.7 µM |  | > 100 µM | 37.5 µM |  | > 100 µM | 94.7 µM | 54.6 µM | 34 µM | 11.6 µM | 16.8 µM | 23.5 µM | 22.5 µM | 75.4 µM |  |  |  | > 100 µM | 16.7 µM
CCCCc1c2c(nc3c1CCc1cc(C=O)c(N)nc1-3)/C(=C/c1ccccc1)CCC2 | > 100 µM | 45.1 µM | > 100 µM | > 100 µM | > 100 µM | > 100 µM | > 100 µM | > 100 µM |  |  |  |  |  |  |  |  |  |  | 
Nc1nc(Cl)cc2c1ncn2C1OC(CO)C(O)C1O (configuration not stated) | > 100 µM |  | > 100 µM | > 100 µM |  | > 100 µM | > 100 µM | > 100 µM | > 100 µM | > 100 µM | > 100 µM | > 100 µM | > 100 µM | > 100 µM |  | > 100 µM | > 100 µM | > 100 µM | > 100 µM
COC(=O)CC[C@@H](NC(=O)C(C)NC(=O)COC1C(O)C(COC(=O)CCCCCCCCCCNC(=O)c2ccc([N+](=O)[O-])c3[nH]c4cc(Br)ccc4c(=O)c23)OC(OCc2ccccc2)C1NC(C)=O)C(N)=O (some centres not stated) | > 100 µM | 93.2 µM | > 100 µM | > 100 µM | > 100 µM | > 100 µM | > 100 µM | > 100 µM |  |  |  |  |  |  |  |  |  |  | 
O=C(CCCCCCCCC(=O)OCCCn1cc(C(=O)NC(=O)OCc2ccccc2)c(=O)[nH]c1=O)OCCCn1cc(C(=O)NC(=O)OCc2ccccc2)c(=O)[nH]c1=O | > 100 µM | > 100 µM | > 100 µM | > 100 µM | > 100 µM | > 100 µM | > 100 µM | > 100 µM |  |  |  |  |  |  |  |  |  |  | 
CCOc1cccc2cccnc12 |  | > 100 µM | > 100 µM |  |  | > 100 µM | > 100 µM | > 100 µM |  |  |  |  |  |  |  |  |  |  | 
CC1=NN(C(=O)CC(=O)Nc2ccccc2)C(=O)C1N=Nc1ccc(S(N)(=O)=O)cc1 (configuration not stated) | > 100 µM | > 100 µM | > 100 µM | > 100 µM | > 100 µM | > 100 µM | > 100 µM | > 100 µM |  |  |  |  |  |  |  |  |  |  | 
OCCOCn1nc(-c2ccccc2)nc1-c1cnccn1 | > 100 µM | > 100 µM | > 100 µM | > 100 µM |  | > 100 µM | > 100 µM | > 100 µM |  |  |  |  |  |  |  |  | > 100 µM |  | 
CCOC(=O)C(=C=Cc1cccs1)C(=O)c1ccccc1 | 31.3 µM | 31.2 µM | 39.4 µM | 30.1 µM |  | 28.5 µM | > 100 µM | 28.8 µM |  |  |  |  |  |  |  |  |  |  | 
C=CC[n+]1c(/C=C2\Sc3ccccc3N2C)sc(-c2ccccc2)c1-c1ccccc1 | 12.4 µM | 15.7 µM | 11.9 µM | 13.4 µM |  | 12.6 µM | 11.8 µM | 10.9 µM | 0.383 µM | 0.353 µM | 0.289 µM | 0.315 µM | 0.374 µM | 19.4 µM | 0.401 µM | 7.89 µM | 61.7 µM | 0.274 µM | 2.18 µM
COc1cc(C=C2C(=O)OC(C)(C)OC2=O)cc(OC)c1OC | > 100 µM | > 100 µM | > 100 µM | > 100 µM | > 100 µM | > 100 µM | > 100 µM | > 100 µM |  |  |  |  |  |  |  |  |  |  | 
Cn1c(=O)c2[nH]c(Nc3ccccc3)nc2n(C)c1=O |  | > 10 µM | > 10 µM | > 10 µM | > 10 µM |  | > 10 µM | > 10 µM |  |  |  |  |  |  |  |  |  |  | 
COc1cc(C2CC(c3ccc(C)cc3)=NN2C(C)=O)ccc1Oc1ccnc2cc(Cl)ccc12 (configuration not stated) | > 100 µM | > 100 µM |  | > 100 µM |  | > 100 µM | > 100 µM | > 100 µM | > 100 µM | > 100 µM | 2.71 µM | 1.41 µM | 2.6 µM | > 100 µM | > 100 µM |  |  |  | > 100 µM
CC(=O)OC1CC[C@@]2(C)C(CC(OC3OC(CO)C(O)C(O)C3O)[C@]3(C)C2CCC24CC23CC[C@H]4C(C)CC(O)[C@@H](O)C(C)(C)O)C1(C)C (some centres not stated) | 17.4 µM | 25.5 µM | > 50 µM | > 50 µM | > 50 µM | > 50 µM | 25.7 µM | > 50 µM |  |  |  |  |  |  |  |  |  |  | 
COC1=C(C(=O)OC(C)(C)C)C23CCCCC2(C(C(=O)OC(C)(C)C)=C(OC)C3C(=O)OC(C)(C)C)C1C(=O)OC(C)(C)C (configuration not stated) | > 100 µM | > 100 µM | > 100 µM | > 100 µM | > 100 µM | > 100 µM | > 100 µM | > 100 µM |  |  |  |  |  |  |  |  |  |  | 
